Experimental findings from publication PMC6244214, “Pd-Catalyzed microwave-assisted synthesis of phosphonated 13α-estrones as potential OATP2B1, 17β-HSD1 and/or STS inhibitors” (Beilstein Journal of Organic Chemistry, 2018) are described below.

Read-outs that look alike come from different tables or passages of the source.

Data set [1] concerns the target T1, 17β-hydroxysteroid dehydrogenase type 1 (17β-HSD1) (Homo sapiens, UniProt P14061).
T1 construct: from tissue; host or cells: human term placenta, cytosol
T1 sequence (P14061 1-328): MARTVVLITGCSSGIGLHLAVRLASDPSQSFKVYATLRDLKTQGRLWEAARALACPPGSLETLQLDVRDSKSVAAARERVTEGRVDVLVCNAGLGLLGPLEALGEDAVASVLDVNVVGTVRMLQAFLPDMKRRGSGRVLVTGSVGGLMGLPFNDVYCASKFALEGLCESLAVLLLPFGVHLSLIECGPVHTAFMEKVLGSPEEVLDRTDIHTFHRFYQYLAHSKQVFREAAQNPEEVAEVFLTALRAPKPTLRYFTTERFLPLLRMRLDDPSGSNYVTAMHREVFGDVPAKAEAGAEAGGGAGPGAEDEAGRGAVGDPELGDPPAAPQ
Kind of data set: 17β-HSD1 in vitro radiosubstrate incubation (estrone to 17β-estradiol conversion). In kind it is biochemical. As to conditions: for remaining activity at 10 µM: read-out: 17β-HSD1 rel. conv. ± SD. The protocol: (§1) The ability of the synthesized compounds 8–13 to inhibit activity of steroid sulfatase (STS) and 17β-hydroxysteroid dehydrogenase type 1 (17β-HSD1) was examined. In vitro radiosubstrate incubations were performed with adapted literature methodsS2–4 and human placenta served as source of the enzymes. Radiolabelled steroids were obtained from American Radiolabeled Chemicals (St. Louis, MO, USA). Other chemicals and solvents of analytical grade purity were purchased from Sigma (St. Louis, MO, USA), from Fluka (Buchs, Switzerland) or from Merck (Darmstadt, Germany).
(§2) 3.2. Preparation of enzyme sources
(§3) Human term placentae were collected immediately after delivery and stored frozen at −80 °C.
(§4) Tissue specimens were homogenized with an Ultra-Turrax in 0.1 M HEPES buffer solution […]
(§5) (pH 7.3) containing 1 mM EDTA and 1 mM dithiotreitol, and cytosol and microsomas were obtained with fractionated centrifugation. Application of the human tissue was approved by the institutional Human Investigation Review Board.
(§6) 3.3. Incubation procedures
(§7) Enzymatic incubations were carried out in the HEPES buffer medium at a final volume of 200
(§8) µl. The substrate was added to the incubate in 20 μl of a 25 % v/v propylene glycol in HEPES buffer solution, whereas test compounds were applied in 10 μl of dimethyl sulfoxide solution.
Incubations were performed at 37 °C and terminated by cooling and the addition of organic solvents of the subsequent extraction procedure. Control samples with no inhibitor and blank samples were incubated simultaneously. […]
In the 17β-HSD1 assays the cytosol was incubated using estrone (E1) substrate with [6,7-3H]estrone tracer and 0.1 mM NADPH cofactor excess. The incubation time was 2.5 min. The product 17β-estradiol (E2) was extracted with ethyl acetate and isolated by a TLC method.S5 […]
(§9) In the general procedure, incubations were performed as described. Concentrations of the substrates were 1.0 μM, and the test compounds were applied at 10 μM final concentration in the incubate. Relative conversions compared to non-inhibited controls (100%) were determined. The assays were performed in triplicate, and the mean value and the standard deviation (SD) were calculated.
(§10) In these cases, conversions were measured at 10–15 different concentrations in the appropriate interval between 0.001–50 μM. IC50 results were calculated by using unweighted iterative least squares logistic curve fitting by means of the “absolute IC50 calculation“ function of the GraphPad Prism 4.0 software (GraphPad Software, Inc., San Diego, CA, USA).

Data set [2] has as its target T2, human OATP2B1 (Homo sapiens, UniProt O94956).
T2 construct: expressed in transfected cells; host or cells: A431 cells
T2 sequence (O94956 1-709): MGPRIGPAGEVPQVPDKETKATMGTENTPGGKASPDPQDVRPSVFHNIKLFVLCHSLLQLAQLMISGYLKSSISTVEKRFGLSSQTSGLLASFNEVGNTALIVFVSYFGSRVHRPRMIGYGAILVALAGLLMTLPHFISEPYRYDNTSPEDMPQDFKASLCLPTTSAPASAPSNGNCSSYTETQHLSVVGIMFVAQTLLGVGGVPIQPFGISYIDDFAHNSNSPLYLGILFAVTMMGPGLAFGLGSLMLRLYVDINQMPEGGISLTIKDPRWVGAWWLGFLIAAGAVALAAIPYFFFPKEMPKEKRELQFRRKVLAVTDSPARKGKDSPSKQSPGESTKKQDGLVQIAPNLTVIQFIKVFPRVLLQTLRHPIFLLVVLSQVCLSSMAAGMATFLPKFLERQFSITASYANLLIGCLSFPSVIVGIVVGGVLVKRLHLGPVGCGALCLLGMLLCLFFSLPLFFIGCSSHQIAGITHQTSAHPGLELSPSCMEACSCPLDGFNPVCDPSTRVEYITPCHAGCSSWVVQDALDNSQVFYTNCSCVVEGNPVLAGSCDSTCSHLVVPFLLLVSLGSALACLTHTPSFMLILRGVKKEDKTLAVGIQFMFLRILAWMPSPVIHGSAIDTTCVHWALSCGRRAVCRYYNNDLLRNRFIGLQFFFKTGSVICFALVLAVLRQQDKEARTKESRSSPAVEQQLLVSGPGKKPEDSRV
Kind of data set: Cascade Blue uptake assay of OATP2B1 transport activity. In kind it is cell-based. As for the experimental part: CascadeBlue assay.S1 A431 cells ([…] in 200 μl) overexpressing human OATP2B1 or transfected with the vector control were seeded on 96 well plates 16 hours prior to the transport measurement. Transport reaction was performed as described in.S1 Briefly, after washing the cells 3-times with 200 µl 1 × phosphate buffered saline (PBS) the cells were preincubated with test compounds in final concentrations from 0.03 to 50 µM or dimethyl sulfoxide (used as a solvent for the test compounds and serving as non-treated control) for 5 minutes at 37 °C. The reaction was started with the addition of 50 µl Cascade Blue (resulting in final concentration of 10 µM) and the cells were further incubated at 37 °C for 30 minutes.
The reaction was stopped by the addition of 200 µl ice-cold 1 × PBS, and after 3 washing steps the fluorescence remaining in the cells was determined by Enspire fluorescent plate reader (Perkin Elmer) at 400 nm excitation and 419 nm emission wavelengths. Transport activity was determined by subtracting fluorescence in mock transfected cells. Kinetics of inhibition was determined by Hill fit using the Origin 8.6 software. […]

The target of data set [3] is T3, human placental steroid sulfatase (STS) (Homo sapiens, UniProt P08842).
T3 construct: from tissue; host or cells: human term placenta, microsomes
T3 sequence (P08842 22-583): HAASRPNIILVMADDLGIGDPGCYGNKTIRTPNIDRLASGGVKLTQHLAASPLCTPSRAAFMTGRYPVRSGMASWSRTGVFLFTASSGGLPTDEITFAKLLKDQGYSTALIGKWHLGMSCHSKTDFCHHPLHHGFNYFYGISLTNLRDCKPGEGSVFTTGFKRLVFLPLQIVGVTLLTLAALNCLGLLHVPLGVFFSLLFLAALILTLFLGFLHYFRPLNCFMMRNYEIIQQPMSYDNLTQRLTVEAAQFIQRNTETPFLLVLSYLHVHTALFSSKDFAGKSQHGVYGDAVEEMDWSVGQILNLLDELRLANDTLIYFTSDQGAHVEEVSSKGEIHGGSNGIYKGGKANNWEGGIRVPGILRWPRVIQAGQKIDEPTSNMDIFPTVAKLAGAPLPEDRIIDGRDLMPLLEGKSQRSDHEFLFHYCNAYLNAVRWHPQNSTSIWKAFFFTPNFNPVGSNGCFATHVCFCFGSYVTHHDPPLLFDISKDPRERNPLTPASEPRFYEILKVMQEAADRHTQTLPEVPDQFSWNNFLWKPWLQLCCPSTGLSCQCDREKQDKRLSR
As to the kind of experiment: STS in vitro radiosubstrate incubation (estrone-3-sulfate to estrone conversion). It is filed as biochemical. The conditions noted are these: relative conversion vs non-inhibited control (100%); test compound 10 μM; substrate E1S 1.0 μM; placental microsomes; n = 3; read-out: STS rel. conv. ± SD. The protocol:
as §1, §2, §3, §4, §5, §6, §7, §8
Incubations were performed at 37 °C and terminated by cooling and the addition of organic solvents of the subsequent extraction procedure. Control samples with no inhibitor and blank samples were incubated simultaneously. The radioactivity of the products formed was measured by means of liquid scintillation counting (LSC) and taken as indicator of the […]
STS assays were performed using microsoma suspension and estrone-3-sulfate (E1S) substrate with [6,7-3H]estrone-3-sulfate tracer with incubations lasting for 20 min. Reactions were terminated by the addition of equal volume of methanol, and the product estrone (E1) was extracted with toluene.S4 […]
as §9, §10

Setting [4] is: A431 cells overexpressing human OATP2B1, Cascade Blue 10 μM, 30 min, 37 °C, read-out: OATP2B1 IC50 ± SD.

Broadly, the IC50 is the point on the concentration scale where inhibition reaches its midpoint.

For the compound `C[C@@]12CC[C@@H]3c4cc(P(=O)(c5ccccc5)c5ccccc5)c(O)cc4CC[C@H]3[C@@H]1CCC2=O` [9b, (3-hydroxy-13α-estra-1,3,5(10)-trien-17-on-2-yl)diphenylphosphine oxide], the IC50 in data set [1] (human placental cytosol, estrone 1.0 μM, 0.1 mM NADPH, read-out: 17β-HSD1 IC50 ± SD) was 180 ± 60 nM; in data set [2] it was 2600 ± 200 nM. For the same compound, the remaining activity at 10 µM in data set [3] is 77 ± 10%.

For `COc1ccc2c(c1P(=O)(c1ccccc1)c1ccccc1)CC[C@@H]1[C@@H]2CC[C@@]2(C)C(=O)CC[C@@H]12` [11b, (3-methoxy-13α-estra-1,3,5(10)-trien-17-on-4-yl)diphenylphosphine oxide], the values for the remaining activity at 10 µM in data set [1] and in data set [3] were 106 ± 8% and 80 ± 5%, respectively. The compound also yielded an IC50 in data set [2] of 2500 ± 400 nM.

With `C[C@@]12CC[C@@H]3c4ccc(O)c(P(=O)(c5ccccc5)c5ccccc5)c4CC[C@H]3[C@@H]1CCC2=O` [12b, (3-hydroxy-13α-estra-1,3,5(10)-trien-17-on-4-yl)diphenylphosphine oxide], the remaining activity at 10 µM in data set [1] is 100 ± 5%; in data set [3], 93 ± 4%. In data set [2], the IC50 is above 50000 nM.

As for `CCOP(=O)(OCC)c1c(OCc2ccccc2)ccc2c1CC[C@@H]1[C@@H]2CC[C@@]2(C)C(=O)CC[C@@H]12` [13a, diethyl (3-benzyloxy-13α-estra-1,3,5(10)-trien-17-on-4-yl)phosphonate], the values for the remaining activity at 10 µM in data set [1] and in data set [3] were 92 ± 3% and 87 ± 5%, respectively. In data set [2], this compound returned an IC50 of 300 ± 20 nM.

For `C[C@@]12CC[C@@H]3c4ccc(OCc5ccccc5)cc4CC[C@H]3[C@@H]1CCC2=O` [13αE1OBn, reference compound], in data set [2] (setting [4]), the IC50 came out at 1700 ± 900 nM.

On to `C[C@@]12CC[C@@H]3c4cc(P(=O)(c5ccccc5)c5ccccc5)c(OCc5ccccc5)cc4CC[C@H]3[C@@H]1CCC2=O` [10b, (3-benzyloxy-13α-estra-1,3,5(10)-trien-17-on-2-yl)diphenylphosphine oxide], for which the remaining activity at 10 µM in data set [1] was 73 ± 3%; in data set [3], 85 ± 5%. In addition, inhibition in data set [2] was half-maximal at 1000 ± 100 nM (IC50).

Turning to `CCOP(=O)(OCC)c1c(OC)ccc2c1CC[C@@H]1[C@@H]2CC[C@@]2(C)C(=O)CC[C@@H]12` [11a, diethyl (3-methoxy-13α-estra-1,3,5(10)-trien-17-on-4-yl)phosphonate], the figures for the remaining activity at 10 µM in data set [1] and in data set [3] were 100 ± 5% and 93 ± 7%, respectively. Moreover, half-maximal inhibition in data set [2] (IC50) required 2800 ± 1500 nM.

Consider `CCOP(=O)(OCC)c1c(O)ccc2c1CC[C@@H]1[C@@H]2CC[C@@]2(C)C(=O)CC[C@@H]12` [12a, diethyl (3-hydroxy-13α-estra-1,3,5(10)-trien-17-on-4-yl)phosphonate], for which the remaining activity at 10 µM in data set [1] came out at 84 ± 4%; in data set [3], 93 ± 6%. The same compound yielded an IC50 in data set [2] of 1400 ± 100 nM.

Turning to `CCOP(=O)(OCC)c1cc2c(cc1OCc1ccccc1)CC[C@@H]1[C@@H]2CC[C@@]2(C)C(=O)CC[C@@H]12` [10a, diethyl (3-benzyloxy-13α-estra-1,3,5(10)-trien-17-on-2-yl)phosphonate], the remaining activity at 10 µM was 64 ± 3% in data set [1] and 85 ± 7% in data set [3]. In data set [2], this compound had an IC50 of 200 ± 20 nM.

As for `CCOP(=O)(OCC)c1cc2c(cc1O)CC[C@@H]1[C@@H]2CC[C@@]2(C)C(=O)CC[C@@H]12` [9a, diethyl (3-hydroxy-13α-estra-1,3,5(10)-trien-17-on-2-yl)phosphonate], the IC50 in data set [1] was 1500 ± 300 nM; in data set [2], 2100 ± 200 nM. The remaining activity at 10 µM in data set [3] stood at 97 ± 5%.

With `C[C@@]12CC[C@@H]3c4ccc(OCc5ccccc5)c(P(=O)(c5ccccc5)c5ccccc5)c4CC[C@H]3[C@@H]1CCC2=O` [13b, (3-benzyloxy-13α-estra-1,3,5(10)-trien-17-on-4-yl)diphenylphosphine oxide], the remaining activity at 10 µM turned out to be 75 ± 2% in data set [1] and 105 ± 7% in data set [3]. Moreover, the IC50 in data set [2] is 300 ± 20 nM.

For `COc1ccc2c(c1)CC[C@@H]1[C@@H]2CC[C@@]2(C)C(=O)CC[C@@H]12` [13αE1OMe, reference compound], in data set [2] (setting [4]), the IC50 amounted to 3400 ± 300 nM.

For `COc1cc2c(cc1P(=O)(c1ccccc1)c1ccccc1)[C@H]1CC[C@@]3(C)C(=O)CC[C@H]3[C@@H]1CC2` [8b, (3-methoxy-13α-estra-1,3,5(10)-trien-17-on-2-yl)diphenylphosphine oxide], the IC50 in data set [1] was found to be 4100 ± 1100 nM; in data set [2], 1200 ± 100 nM. In addition, the remaining activity at 10 µM in data set [3] came to 80 ± 8%.

Consider `CCOP(=O)(OCC)c1cc2c(cc1OC)CC[C@@H]1[C@@H]2CC[C@@]2(C)C(=O)CC[C@@H]12` [8a, diethyl (3-methoxy-13α-estra-1,3,5(10)-trien-17-on-2-yl)phosphonate], for which the remaining activity at 10 µM turned out to be 60 ± 3% in data set [1] and 84 ± 4% in data set [3]. For the same compound, the IC50 in data set [2] stood at 1800 ± 300 nM.
